Test results reported in article PMC6133161, “Thiazoles with cyclopropyl fragment as antifungal, anticonvulsant, and anti-Toxoplasma gondii agents: synthesis, toxicity evaluation, and molecular docking study” (Medicinal Chemistry Research, 2018).
Converted amounts (≈) assume the structure as drawn.

Legend:
Experiment in all cases: Broth microdilution MIC/MFC, clinical isolate
Assay type in all cases: cell-based
[1] = test system: C. glabrata; conditions: Nakaseomyces glabratus, C. glabrata clinical strain; for MFC: read-out: MFC; for MIC: read-out: MIC
Description: (§1) In the study of antifungal activity of the compounds 3a–3j, 15 clinical strains of different species of yeasts from Candida species, namely C. albicans, C. dubliniensis C. famata, C. inconspicua, C. krusei, C. tropicalis, C. glabrata, C. lambica, C. kefyr, C. lusitaniae, C. parapsilosis, C. guilliermondii, C. lusitaniae, C. pulcherrima and C. sake were also used. These fungi were isolated by the author (from Department of Pharmaceutical Microbiology of Medical University in Lublin, Poland) from different clinical materials, e.g., from upper respiratory tract of hospitalized patients including cancer patients (i.e., with non-small cell lung cancer or hematological malignancies). Some patients were after pre-operative or post-operative chemotherapy (treated with etoposide or cis-platin given in doses according to the standard procedures), patients with chronic hepatitis C (undergoing peginterferon and ribavirin therapy or without antiviral therapy), patients with diabetes, elderly people, aged of 65 years old or older, staying in close population, such as a care centre and people staying outside the home care. The Ethical Committee of the Medical University of Lublin approved the study protocol (No. KE-0254/75/2011). The isolates were identified by standard diagnostic methods—biochemical microtest, e.g., API 20C AUX, ID 32C, API Candida (bioMérieux) on the basis of assimilation of various substrates. All the used microbial cultures were first subcultured on nutrient agar or Sabouraud agar for bacteria and fungi, respectively. The RPMI 1640 with MOPS (for fungi) were inoculated with the suspensions of fungal species. Microbial suspensions were prepared in sterile saline (0.85% NaCl) with an optical density of 0.5 McFarland standard scale (Wiegand et al. [2008]). Samples containing examined compounds were dissolved in dimethyl sulfoxide (DMSO). Furthermore, fungal suspensions were put onto Petri dishes with solid media containing 2 mg/ml of the tested compounds followed incubation under appropriate conditions. The inhibition of microbial growth was judged by comparison with a control culture prepared without any sample tested. Nystatin (Sigma) was used as a reference antifungal compound. Subsequently MIC minimal inhibitory concentration (MIC) of the compounds was examined by the microdilution broth method, using their two-fold dilutions in RPMI 1640 broth with MOPS prepared in 96-well polystyrene plates. Final concentrations of the compounds ranged from 1000 to 0.0038 µg/ml. Microbial suspensions were prepared in sterile saline with an optical density of 0.5 McFarland standard. Next fungal suspension was added per each well containing broth and various concentrations of the examined compounds. After incubation, the MIC was assessed spectrophotometric as the lowest concentration of the samples showing complete fungal growth inhibition. Appropriate DMSO, growth and sterile controls were carried out. The medium with no tested substances was used as a control (Wiegand et al. [2008]). The minimal fungicidal concentration (MFC) are defined as the lowest concentration of the compounds that is required to kill a particular fungal species. MFC was determined by removing the culture using for MIC determinations from each well and spotting onto appropriate agar medium. The plates were incubated. The lowest compounds concentration with no visible growth observed was assessed as a fungicidal concentration. All the experiments were repeated three times and representative data are presented.
(§2) The MFC/MIC ratios were calculated in order to determine fungicidal (MFC/MIC ≤ 4) or fungistatic (MFC/MIC > 4) effect of the tested compounds (O’Donnell et al. [2010]).

[2] = test system: C. parapsilosis; conditions: Lodderomyces parapsilosis, C. parapsilosis clinical strain; for MFC: read-out: MFC; for MIC: read-out: MIC
Description: as §1, §2

[3] = test system: C. pulcherrima; conditions: C. pulcherrima clinical strain; for MFC: read-out: MFC; for MIC: read-out: MIC
Description: as §1, §2

[4] = test system: C. lusitaniae; conditions: Clavispora lusitaniae, C. lusitaniae clinical strain; for MFC: read-out: MFC; for MIC: read-out: MIC
Description: as §1, §2

[5] = test system: C. sake; conditions: Fermentozyma sake, C. sake clinical strain; for MFC: read-out: MFC; for MIC: read-out: MIC
Description: as §1, §2

[6] = test system: C. guilliermondii; conditions: Meyerozyma guilliermondii, C. guilliermondii clinical strain; for MFC: read-out: MFC; for MIC: read-out: MIC
Description: as §1, §2

[7] = test system: C. lambica; conditions: Pichia fermentans, C. lambica clinical strain; for MFC: read-out: MFC; for MIC: read-out: MIC
Description: as §1, §2

[8] = test system: C. inconspicua; conditions: Pichia inconspicua, C. inconspicua clinical strain; for MFC: read-out: MFC; for MIC: read-out: MIC
Description: as §1, §2

[9] = test system: C. dubliniensis; conditions: Candida dubliniensis, C. dubliniensis clinical strain; for MFC: read-out: MFC; for MIC: read-out: MIC
Description: as §1, §2

[10] = test system: C. famata; conditions: Debaryomyces hansenii, C. famata clinical strain; for MFC: read-out: MFC; for MIC: read-out: MIC
Description: as §1, §2

[11] = test system: C. albicans; conditions: Candida albicans, C. albicans clinical strain; for MFC: read-out: MFC; for MIC: read-out: MIC
Description: as §1, §2

[12] = test system: C. kefyr; conditions: C. kefyr clinical strain; for MFC / MIC: Kluyveromyces marxianus; for MFC: read-out: MFC; for MIC: read-out: MIC
Description: as §1, §2

[13] = test system: C. krusei; conditions: Pichia kudriavzevii, C. krusei clinical strain; for MFC: read-out: MFC; for MIC: read-out: MIC
Description: as §1, §2

[14] = test system: C. tropicalis; conditions: Candida tropicalis, C. tropicalis clinical strain; for MFC: read-out: MFC; for MIC: read-out: MIC
Description: as §1, §2

Row | SMILES | MFC [1] | MIC [1] | MFC [2] | MIC [2] | MFC [3] | MIC [3] | MFC [4] | MIC [4] | MFC [5] | MIC [5] | MFC [6] | MIC [6] | MFC [7] | MIC [7] | MFC [8] | MIC [8] | MFC [9] | MIC [9] | MFC [10] | MIC [10] | further results
1 | COc1ccc(-c2csc(N/N=C/C3CC3)n2)cc1 [Compound 3f, (E)-2-(2-(Cyclopropylmethylene)hydrazinyl)-4-(4-methoxyphenyl)thiazole] | > 1000 µg/mL | 31.2 µg/mL (≈ 114 µM) | 0.98 µg/mL (≈ 3.59 µM) | 0.12 µg/mL (≈ 0.439 µM) | > 1000 µg/mL | 31.2 µg/mL (≈ 114 µM) | 0.48 µg/mL (≈ 1.76 µM) | 0.12 µg/mL (≈ 0.439 µM) | 7.81 µg/mL (≈ 28.6 µM) | 0.06 µg/mL (≈ 0.219 µM) | 7.81 µg/mL (≈ 28.6 µM) | 0.48 µg/mL (≈ 1.76 µM) | > 1000 µg/mL | 31.2 µg/mL (≈ 114 µM) | 0.98 µg/mL (≈ 3.59 µM) | 0.03 µg/mL (≈ 0.11 µM) | 0.06 µg/mL (≈ 0.219 µM) | 0.015 µg/mL (≈ 0.0549 µM) | 7.81 µg/mL (≈ 28.6 µM) | 0.48 µg/mL (≈ 1.76 µM) | MFC [11]: 0.98 µg/mL (≈ 3.59 µM); MIC [11]: 0.24 µg/mL (≈ 0.878 µM); MFC/MIC [12]: 4; MFC [12]: 7.81 µg/mL (≈ 28.6 µM); MIC [12]: 1.95 µg/mL (≈ 7.13 µM); MFC [13]: 0.015 µg/mL (≈ 0.0549 µM); MIC [13]: 0.015 µg/mL (≈ 0.0549 µM); MFC [14]: 0.98 µg/mL (≈ 3.59 µM); MIC [14]: 0.06 µg/mL (≈ 0.219 µM)
2 | Fc1ccc(-c2csc(N/N=C/C3CC3)n2)c(F)c1 [Compound 3g, (E)-2-(2-(Cyclopropylmethylene)hydrazinyl)-4-(2,4-difluorophenyl)thiazole] | > 1000 µg/mL | 15.6 µg/mL (≈ 55.9 µM) | 1.95 µg/mL (≈ 6.98 µM) | 0.98 µg/mL (≈ 3.51 µM) | > 1000 µg/mL | 250 µg/mL (≈ 895 µM) | 1.95 µg/mL (≈ 6.98 µM) | 0.48 µg/mL (≈ 1.72 µM) | 3.91 µg/mL (≈ 14 µM) | 0.48 µg/mL (≈ 1.72 µM) | 31.2 µg/mL (≈ 112 µM) | 7.81 µg/mL (≈ 28 µM) | > 1000 µg/mL | 125 µg/mL (≈ 448 µM) | 1.98 µg/mL (≈ 7.09 µM) | 0.48 µg/mL (≈ 1.72 µM) | 0.48 µg/mL (≈ 1.72 µM) | 0.24 µg/mL (≈ 0.859 µM) | 62.5 µg/mL (≈ 224 µM) | 7.81 µg/mL (≈ 28 µM) | MFC [11]: 1.95 µg/mL (≈ 6.98 µM); MIC [11]: 0.48 µg/mL (≈ 1.72 µM); MFC [12]: 31.2 µg/mL (≈ 112 µM); MIC [12]: 31.2 µg/mL (≈ 112 µM); MFC [13]: 0.48 µg/mL (≈ 1.72 µM); MIC [13]: 0.03 µg/mL (≈ 0.107 µM); MFC [14]: 0.98 µg/mL (≈ 3.51 µM); MIC [14]: 0.06 µg/mL (≈ 0.215 µM)
3 | N#Cc1ccc(-c2csc(N/N=C/C3CC3)n2)cc1 [Compound 3h, (E)-4-(2-(2-(Cyclopropylmethylene)hydrazinyl)thiazol-4-yl)benzonitrile] | > 1000 µg/mL | 125 µg/mL (≈ 466 µM) | 31.2 µg/mL (≈ 116 µM) | 1.95 µg/mL (≈ 7.27 µM) | > 1000 µg/mL | 62.5 µg/mL (≈ 233 µM) | 0.98 µg/mL (≈ 3.65 µM) | 0.24 µg/mL (≈ 0.894 µM) | 125 µg/mL (≈ 466 µM) | 0.98 µg/mL (≈ 3.65 µM) | 3.91 µg/mL (≈ 14.6 µM) | 0.48 µg/mL (≈ 1.79 µM) | > 1000 µg/mL | 125 µg/mL (≈ 466 µM) | 0.48 µg/mL (≈ 1.79 µM) | 0.24 µg/mL (≈ 0.894 µM) | 0.98 µg/mL (≈ 3.65 µM) | 0.48 µg/mL (≈ 1.79 µM) | 3.91 µg/mL (≈ 14.6 µM) | 1.95 µg/mL (≈ 7.27 µM) | MFC [11]: 15.6 µg/mL (≈ 58.2 µM); MIC [11]: 0.98 µg/mL (≈ 3.65 µM); MFC [12]: 125 µg/mL (≈ 466 µM); MIC [12]: 7.81 µg/mL (≈ 29.1 µM); MFC [13]: 7.81 µg/mL (≈ 29.1 µM); MIC [13]: 0.48 µg/mL (≈ 1.79 µM); MFC [14]: 0.98 µg/mL (≈ 3.65 µM); MIC [14]: 0.03 µg/mL (≈ 0.112 µM)
4 | O=[N+]([O-])c1ccc(-c2csc(N/N=C/C3CC3)n2)cc1 [Compound 3j, (E)-2-(2-(Cyclopropylmethylene)hydrazinyl)-4-(4-nitrophenyl)thiazole] | > 1000 µg/mL | 125 µg/mL (≈ 434 µM) | 1.95 µg/mL (≈ 6.76 µM) | 0.48 µg/mL (≈ 1.66 µM) | > 1000 µg/mL | 7.81 µg/mL (≈ 27.1 µM) | 0.98 µg/mL (≈ 3.4 µM) | 0.48 µg/mL (≈ 1.66 µM) | 0.98 µg/mL (≈ 3.4 µM) | 0.24 µg/mL (≈ 0.832 µM) | 0.98 µg/mL (≈ 3.4 µM) | 0.24 µg/mL (≈ 0.832 µM) | > 1000 µg/mL | 250 µg/mL (≈ 867 µM) | 1.95 µg/mL (≈ 6.76 µM) | 0.98 µg/mL (≈ 3.4 µM) | 0.48 µg/mL (≈ 1.66 µM) | 0.24 µg/mL (≈ 0.832 µM) | 31.2 µg/mL (≈ 108 µM) | 1.95 µg/mL (≈ 6.76 µM) | MFC [11]: 0.48 µg/mL (≈ 1.66 µM); MIC [11]: 0.24 µg/mL (≈ 0.832 µM); MFC [12]: > 1000 µg/mL; MIC [12]: 125 µg/mL (≈ 434 µM); MFC [13]: 0.12 µg/mL (≈ 0.416 µM); MIC [13]: 0.06 µg/mL (≈ 0.208 µM); MFC [14]: 0.015 µg/mL (≈ 0.052 µM); MIC [14]: 0.015 µg/mL (≈ 0.052 µM)
